Tests used:
Format in all cases: biochemical
FXa = FXa (Homo sapiens, UniProt P00742); assay: Determination of selectivity: FXa inhibition, chromogenic substrate S2765 assay; details: fold selectivity for FXIIa over FXa
Experimental: (§1) The activities of the compounds of the invention have been determined in vitro using the following assays protocols for the screening of activity of FXIIa and other proteases. Each of these assays were performed in a purified system employing the use of chromogenic assays in microplate plate wells. Chromogenic peptide substrates mimicking natural protein substrates are attached via an amide bond to a chromogenic group. Paranitroaniline (pNA) is released from the peptide following catalyses by the proteolytic enzyme; the absorbance increases and can be monitored at 405 nm.
(§2) All compounds were dissolved in 100% (v/v) DMSO to a stock concentration of 10 mM, the highest concentration of compound used in each assay is 500 μM. The final concentrations of DMSO were 5% (v/v) in 50 mM Tris 137 mM NaC pH 7.4. Where no test compound was added a final concentration of 5% DMSO was employed.
(§3) Determination of Selectivity
(§4) To determine selectivity of test compounds, these test compounds were assayed for inhibitory activity against other serine proteases including FXa and thrombin. Essentially compounds at increasing concentrations were incubated with each enzyme: FXa (5 nM) and thrombin (5 nM), for 10 mins at 37° C. followed the appropriate chromogenic substrate, S2765 ([…]), and GPR ([…]) respectively in 50 mM Tris, 137 mM NaCl, pH 7.4. Chromogenic substrates S2765 was from Chromogenix, and GPR from Bachem. Kinetic readings at 405 nm were monitored every 12 secs for a total duration of 3 hours at 37° C. Gradients of initial rates were determined and employed to calculate IC50 values. Values of IC50 were converted to Ki values based on the formula: Ki=IC50/(1+[Substrate]/Km)
(§5) Where [Substrate] denotes the concentration of substrate used in the assay and Km is the determined value of each enzyme with its own substrate.
(§6) The fold selectivity for FXIIa over thrombin for the compounds of the invention has been categorised based on the fold selectivity values, the categories being “+”, “++” and “+++”. The category “+” refers to fold selectivity values less than 10. The category “++” refers to a fold selectivity value of 10 to 100. The category “+++” refers to fold selectivity values greater than 100.
The fold selectivity for FXIIa over FXa for the compounds of the invention has been categorised based on the fold selectivity values, the categories being “o”, “oo” and “ooo”. The category “o” refers to fold selectivity values less than 10. The category “oo” refers to a fold selectivity value of 10 to 100. The category “ooo” refers to fold selectivity values greater than 100.

FXIIa = target: T1, FXIIa (Homo sapiens, UniProt P00748); assay: Determination of Factor XIIa inhibition, chromogenic substrate S-2302 assay; details: human FXIIa alpha
T1 sequence (P00748 373-615 limits assumed): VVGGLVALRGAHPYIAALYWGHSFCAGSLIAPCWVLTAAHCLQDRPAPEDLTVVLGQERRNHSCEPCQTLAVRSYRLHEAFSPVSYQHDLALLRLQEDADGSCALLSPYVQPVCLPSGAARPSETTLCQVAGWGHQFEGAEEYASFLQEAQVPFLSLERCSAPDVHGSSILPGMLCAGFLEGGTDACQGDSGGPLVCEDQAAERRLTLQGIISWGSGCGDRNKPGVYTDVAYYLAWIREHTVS
T1 sequence (P00748 20-372 partner limits assumed): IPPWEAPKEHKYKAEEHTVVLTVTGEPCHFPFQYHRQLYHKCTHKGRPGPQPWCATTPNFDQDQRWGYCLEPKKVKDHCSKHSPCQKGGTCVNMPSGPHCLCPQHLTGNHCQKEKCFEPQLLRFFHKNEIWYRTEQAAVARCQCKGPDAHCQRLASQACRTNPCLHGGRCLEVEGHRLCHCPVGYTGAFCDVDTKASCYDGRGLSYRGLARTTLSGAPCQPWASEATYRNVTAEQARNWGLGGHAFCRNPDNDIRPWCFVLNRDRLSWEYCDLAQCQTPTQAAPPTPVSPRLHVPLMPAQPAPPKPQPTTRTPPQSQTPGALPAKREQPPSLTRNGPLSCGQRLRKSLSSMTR
Experimental: as §1, §2
Determination of Factor XIa Inhibition
Factor XIa activity was measured using a chromogenic substrate S-2302 (Chromogenix). Various concentrations of compound were incubated with 10 nM of FXIIa and incubated at 37° C. for 10 minutes in 50 mM Tris, 137 mM NaCl, pH 7.4, prior to the addition of a final concentration of 450 µM S-2302 chromogenic substrate. Kinetic readings at 405 nm were monitored every 12 secs for a total duration of 3 hours at 37° C. Gradients of initial rates were determined and employed to calculate IC50 values. Values of IC50 were converted to Ki values based on the formula: Ki=IC50/(1+[Substrate]/Km).
The activity of the compounds of the invention has been categorised based on the Ki values, the categories being “*”, “**” and “***”. […] The category “**” refers to compounds with a Ki value of 0.2 μM to 2 μM.

thrombin = target: T2, thrombin (Homo sapiens, UniProt P00734); assay: Determination of selectivity: thrombin inhibition, chromogenic substrate GPR assay; details: fold selectivity for FXIIa over thrombin
T2 construct: FXa (5 nM) and thrombin (5 nM)
Experimental: as §1, §2, §3, §4, §5, §6

Sequence of FXa (P00742 235-488 limits assumed): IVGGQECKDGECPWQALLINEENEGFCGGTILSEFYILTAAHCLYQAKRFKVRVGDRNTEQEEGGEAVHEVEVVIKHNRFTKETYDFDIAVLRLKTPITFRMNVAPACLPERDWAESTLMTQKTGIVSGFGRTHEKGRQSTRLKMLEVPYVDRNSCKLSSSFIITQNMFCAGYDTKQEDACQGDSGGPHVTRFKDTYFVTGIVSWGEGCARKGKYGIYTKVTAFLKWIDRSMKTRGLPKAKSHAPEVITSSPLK
Sequence of FXa (P00742 41-179 partner limits assumed): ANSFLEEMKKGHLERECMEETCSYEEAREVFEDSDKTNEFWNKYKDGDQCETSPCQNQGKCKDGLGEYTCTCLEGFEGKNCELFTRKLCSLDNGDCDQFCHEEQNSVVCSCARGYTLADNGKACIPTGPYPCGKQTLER

FXa (human)/FXIIa alpha (human) (FXa) | Ki (FXIIa) [µM] | Thrombin (human)/FXIIa alpha (human) (thrombin) | Compound
∘∘ | > 2 | ++ (fold selectivity value of 10 to 100) | Cn1nnc2cc(CNC(=O)[C@@H]3C[C@@H](Cc4cccc5c4CCO5)CN3C(=O)[C@H]3C[C@@H](c4ccccc4)CN3)ccc21 [Example M05371]
∘∘ | > 2 | + (fold selectivity values less than 10) | NCc1ccc(CNC(=O)[C@@H]2CCCN2C(=O)[C@H](N)CCc2cccnc2)cc1 [Example M00808]
∘∘ | > 2 | ++ (fold selectivity value of 10 to 100) | Cn1nnc2cc(CNC(=O)[C@@H]3C[C@H](NCCc4ccccc4)CN3C(=O)[C@H](N)CCc3ccccc3)ccc21 [Example M05205]
∘∘ | > 2 | ++ (fold selectivity value of 10 to 100) | CN(C1CCCCC1)C1C[C@@H](C(=O)NCc2ccc3c(c2)nnn3C)N(C(=O)[C@H](N)CCc2ccccc2)C1 (stereo partly drawn) [Example M05242]
∘∘ | > 2 | ++ (fold selectivity value of 10 to 100) | COc1ccc(C[C@@H]2C[C@@H](C(=O)NCc3ccc4c(c3)nnn4C)N(C(=O)[C@@H]3NCCc4ccccc43)C2)cc1 [Example M05368]
∘∘∘ | 0.2 to 2 | ++ (fold selectivity value of 10 to 100) | Cn1nccc1C[C@H]1C[C@@H](C(=O)NCc2ccc3c(c2)nnn3C)N(C(=O)[C@H](N)CCC(=O)N2CCCC2)C1 [Example M05294]
∘∘ | > 2 | ++ (fold selectivity value of 10 to 100) | Cn1nnc2cc(CNC(=O)[C@@H]3C[C@H](Nc4cnccn4)CN3C(=O)[C@H](N)CCC(=O)N3CCCC3)ccc21 [Example M05243]
∘∘ | > 2 | ++ (fold selectivity value of 10 to 100) | Cn1nnc2cc(CNC(=O)[C@@H]3C[C@H](NCCCc4ccccc4)CN3C(=O)[C@H](N)CCc3ccccc3)ccc21 [Example M05206]

Compound | FXa (human)/FXIIa alpha (human) (FXa) | Ki (FXIIa) [µM] | Thrombin (human)/FXIIa alpha (human) (thrombin)
COc1ccc(C[C@@H]2C[C@@H](C(=O)NCc3cc4cnccc4[nH]3)N(C(=O)[C@H]3C[C@@H](C(=O)N4CCCC4(C)C)CCN3)C2)cc1 [Example M00967] | ∘∘∘ | < 0.2 | +++ (fold selectivity values greater than 100)
COc1ccc(C[C@@H]2C[C@@H](C(=O)NCc3ccc4c(c3)nnn4C)N(C(=O)[C@H](N)CCC(=O)N3CCNC(=O)C3)C2)cc1 [Example M05451] | ∘∘∘ | < 0.2 | +++ (fold selectivity values greater than 100)
COc1ccc(C[C@@H]2C[C@@H](C(=O)NCc3ccc4c(c3)nnn4C)N(C(=O)[C@H](N)CCC(=O)N3C(C)CCC3C)C2)cc1 (stereo partly drawn) [Example M05399] | ∘∘∘ | < 0.2 | +++ (fold selectivity values greater than 100)
COc1ccc(C[C@@H]2C[C@@H](C(=O)NCc3ccc4c(c3)nnn4C)N(C(=O)[C@H](N)CCc3ccccc3)C2)cc1 [Example M05302] | ∘∘∘ | 0.2 to 2 | +++ (fold selectivity values greater than 100)
COc1ccc(C[C@@H]2C[C@@H](C(=O)NCc3ccc4c(c3)nnn4C)N(C(=O)[C@H](N)CCC(=O)N3CC[C@H](F)C3)C2)cc1 [Example M05400] | ∘∘∘ | < 0.2 | +++ (fold selectivity values greater than 100)
COc1ccc(C[C@@H]2C[C@@H](C(=O)NCc3ccc4c(c3)nnn4C)N(C(=O)[C@H](N)CCC(=O)N3C4CCC3C(=O)NC4)C2)cc1 (stereo partly drawn) [Example M05460] | ∘∘∘ | 0.2 to 2 | +++ (fold selectivity values greater than 100)
